The values below come from patent US20180045744A1, “N[…] DRUG CONCENTRATIONS IN ORAL FLUIDS AND TESTING FOR POTENTIAL NON-[…] DRUG TREATMENT REGIMEN” (Ameritox, LLC, priority 2015, published 2018).

The data set is described as follows: Oral fluid testing: concentration of the primary metabolite (parent drug) in oral fluid of patients. Format: in vivo, human. The protocol: In some embodiments, the amount of a drug in a subject is determined by analyzing a fluid of the subject. The term “fluid” as used herein refers to oral fluid and any liquid or pseudo-liquid obtained from the oral cavity of the subject. Non-limiting examples include saliva, mucus, and the like. In an embodiment, the fluid is oral fluid.
Determining the amount of a drug in oral fluid of the subject may be accomplished by use of any method known to those skilled in the art. Non-limiting examples for determining the amount of a drug in fluid of a subject include fluorescence polarization immunoassay (“FPIA,” Abbott Diagnostics), mass spectrometry (MS), gas chromatography-mass spectrometry (GC-MS-MS), liquid chromatography-mass spectrometry (LC-MS-MS), and the like. In one embodiment, LC-MS-MS methods known to those skilled in the art are used to determine a raw level, amount or concentration of a drug in oral fluid of the subject. In one embodiment, a raw level or concentration of a drug in oral fluid of a subject is measured and reported as a ratio, percent, or in relationship to the amount of fluid. The amount of fluid may be expressed as a unit volume, for example, in L, mL, μL, pL, ounce, etc. In one embodiment, the raw amount of a drug in oral fluid of a subject may be expressed as an absolute level or value, for example, in g, mg, pg, ng, pg, etc.
The results (drug concentration of the primary metabolite), demographic information (gender, weight, height, and age), and the prescribed dosage of hydrocodone for fifty randomly selected patients—not included in the patient population used to design the models—were used to assess the validity and robustness of the models.
The results (drug concentration of the primary metabolite), demographic information (gender, weight, height, and age), and the prescribed dosage of oxycodone for fifty randomly selected patients—not included in the patient population used to design the models—were used to assess the validity and robustness of the models.

For the compound `COc1ccc2c3c1O[C@H]1C(=O)CC[C@H]4[C@@H](C2)N(C)CC[C@]314` [Hydrocodone, hydrocodone], the “concentration of the primary metabolite (parent drug) in oral fluid” value (Example 1: subject, 180 lbs, 65 inches, 30 mg daily dose of hydrocodone) is 34 ng/mL. The “concentration of the primary metabolite (parent drug) in the oral fluid” value (Example 2: subject, 225 lbs, 69 inches, 40 mg daily dose of hydrocodone) is on record as 101 ng/m I.
As to `COc1ccc2c3c1O[C@H]1C(=O)CC[C@@]4(O)[C@@H](C2)N(C)CC[C@]314` [Oxycodone, oxycodone], the “concentration of the primary metabolite (parent drug) in the oral fluid” value amounted to 429 ng/mL (Example 3: subject, 254 lbs, 71 inches, 90 mg daily dose of oxycodone) and 50 ng/mL (Example 4: subject, 113 lbs, 64 inches, 60 mg daily dose).
